Structures are written as SMILES.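 Dose response: 5 concentrations. Exposure: 48 h. Format: 96-well plates. Endpoint: linear interpolation; highest concentration if not reached. The concentration for 50% growth inhibition is given as GI50. TGI denotes the concentration required for complete inhibition of growth.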

Test in all cases: growth of human tumour cells (NCI), 48 h
For test [1], the system named is A498 renal.
Test [2] has as its system HCT-15 colon.
Test [3] has as its system HT29 colon.
The subject of test [4] is MALME-3M melanoma.
Test [5] has as its system MCF7 breast.
Test [6] deals with MDA-MB-231 breast.
Test [7] deals with MDA-MB-435.
Test [8] concerns OVCAR-3 ovarian.
The subject of test [9] is OVCAR-4 ovarian.
Test [10] concerns SF-295 CNS.

`O=C1CSC(=S)N1Cc1cccnc1`: the GI50 is 22.7 µM in test [1]; 2.87 µM in test [2]; 3.9 µM in test [3]; 6.71 µM in test [4]; 2.43 µM in test [5]; 4.47 µM in test [6]. Besides, the GI50 in [7] was 3.53 µM; in test [8] it was 3.39 µM; in [9], 7.78 µM; in test [10], 37.7 µM. The TGI in test [1] was 56.2 µM; in test [2], 11.8 µM; in test [3], 11.9 µM; in [4], 25.6 µM; in test [5], 12.8 µM; in test [6], 17.2 µM. Besides, the TGI in test [7] is 17.1 µM; in test [8], 12.1 µM; in test [9], 25.4 µM; in test [10] it was > 100 µM.
For the compound `Cc1cc(NCCCCNc2ccnc3cc(Cl)ccc23)nc(Nc2ccc(C(=O)N3CCCC3)cc2)n1`, the GI50 in test [1] was 1.51 µM; in test [2] it was 2.28 µM; in [3], 2.37 µM; in [4], 1.89 µM; in test [5], 1.72 µM; in test [6], 2.14 µM. The GI50 in test [7] is 1.79 µM; in test [8] it was 1.78 µM; in [9] it was 2.32 µM; in test [10], 1.78 µM. Besides, the TGI came out at 7.09 µM in [1]; 6.75 µM in [2]; 7.8 µM in test [3]; 4.17 µM in test [4]; 5.02 µM in [5]; 5.12 µM in [6]. The TGI was 3.35 µM in [7], 3.81 µM in test [8], 11 µM in [9] and 3.64 µM in [10].
Consider `O=C(N/N=c1/ccoc2cccnc12)N1CCN(c2ncccn2)CC1`, for which the GI50 in test [1] is 0.503 µM; in test [2] it was < 0.01 µM; in [3] it was < 0.01 µM; in [4] it was 1.17 µM; in [5] it was < 0.01 µM; in test [6] it was 0.278 µM. The GI50 in test [7] was 0.568 µM; in test [8], < 0.01 µM; in [9], < 0.0129 µM; in [10], 0.268 µM. The TGI in [1] is 2.87 µM; in test [2] it was 10.1 µM; in test [3] it was 7.39 µM; in [4], 7.22 µM; in test [5], 11.9 µM; in test [6], 7.41 µM. The TGI was determined as 8.24 µM in test [7], 4.46 µM in test [8], 4.65 µM in test [9] and 6.03 µM in test [10].
As to `CC1CC(C)/C(=N/NC(N)=O)C(C(O)CC2CCC(=O)NC2=O)C1` (stereo not given), the GI50 in [1] was 4.94 µM; in test [2] it was 3.39 µM; in test [3], 3.49 µM; in test [4] it was 3.21 µM; in test [5] it was 3.92 µM; in test [6] it was 8.4 µM. Also, the GI50 in test [7] is 3.3 µM; in [8] it was 5.54 µM; in test [9], 5.64 µM; in [10], 1.68 µM. Further, the TGI is 92.4 µM in test [1]; > 100 µM in test [2]; > 100 µM in [3]; 41.8 µM in test [4]; > 100 µM in [5]; 88.9 µM in test [6]. Moreover, the TGI in test [7] was 97 µM; in test [8], 48.1 µM; in test [9], > 100 µM; in test [10] it was 13.5 µM.
`O=C(Nc1ccc(Cl)cc1)c1ccc([N+](=O)[O-])o1`: the GI50 in test [1] is 3.46 µM; in test [2], 1.48 µM; in test [3] it was 1.34 µM; in [4], 2.25 µM; in [5] it was 1.52 µM; in test [6], 6.79 µM. The GI50 is 2.25 µM in test [7], 2.92 µM in test [8], 2.11 µM in test [9] and 3.29 µM in [10]. Besides, the TGI was 14.8 µM in test [1]; 3.43 µM in test [2]; 3.45 µM in test [3]; 5.21 µM in test [4]; 4.19 µM in [5]; 47.2 µM in test [6]. For the same compound, the TGI in test [7] is 6.2 µM; in [8] it was 9.4 µM; in [9] it was 8.31 µM; in test [10] it was 12.3 µM.
Consider `Cc1ccc(NSc2ccccc2[N+](=O)[O-])cc1`, for which the GI50 in test [1] is 0.186 µM; in test [2] it was 0.155 µM; in [3], 0.117 µM; in test [4], 3.21 µM; in test [5] it was 0.133 µM; in test [6] it was 1.06 µM. Further, the GI50 was 0.0678 µM in [7], 0.503 µM in test [8], 6.26 µM in test [9] and 0.889 µM in [10]. For the same compound, the TGI amounted to 3.75 µM in test [1]; 14.2 µM in test [2]; 12.3 µM in test [3]; 28.9 µM in test [4]; 16.2 µM in test [5]; 15.5 µM in test [6]. Also, the TGI is 0.171 µM in [7], 7.4 µM in [8], 23.2 µM in [9] and 9.18 µM in test [10].
With `Oc1ccc2ccccc2c1C(c1ccc(Cl)cc1)c1c(O)ccc2ccccc12`, the TGI in test [1] is 9.36 µM; in test [2], > 30.2 µM; in test [3], 9.78 µM; in test [4] it was 6.71 µM; in test [5], 11.5 µM; in [6], 9.24 µM. The TGI came to 9.49 µM in [7], 9.06 µM in [8], 11.2 µM in test [9] and 12.7 µM in test [10].
Turning to `Cc1cc(O)ccc1O`, the GI50 in [1] is 79.9 µM; in [2], 16.6 µM; in test [3], 49.8 µM; in [4], 15.8 µM; in [5], 19 µM; in [6] it was 11.4 µM. Moreover, the GI50 in [7] is 17.8 µM; in [8], 14.1 µM; in test [9] it was 15.6 µM; in [10] it was 34.9 µM. For the same compound, the TGI was > 100 µM in [1]; 34.8 µM in test [2]; > 100 µM in test [3]; 31.1 µM in test [4]; 69.8 µM in [5]; 23.6 µM in test [6]. Further, the TGI is 36.6 µM in test [7], 27.9 µM in test [8], 29 µM in [9] and > 100 µM in test [10].

The values are drawn from PubChem BioAssay (NCI).
